Experimental data published in patent publication US20240325398A1, “COMBINATION THERAPIES” (Infinity Pharmaceuticals, Inc., priority 2014, published 2024).

What was measured:
CLL = experiment: Clinical trial, Compound 1 monotherapy in a patient with CLL; format: in vivo, human; conditions: one CLL patient
[1] = Tolerability and pharmacokinetics of Compound 1 with dexamethasone in non-tumor bearing mice; format: in vivo
Description: The effects of a combination of Compound 1 and dexamethasone were assessed in vivo in non-tumor bearing mice. Dexamethasone is an inducer of CYP2B6 and CYP3A4 and thus might be expected to decrease exposure of Compound 1. Tolerability of the combination was assessed in non-tumor bearing CD17.SCID female mice. Treatment was carried out for 14 days using the following treatment groups: 1) Vehicle 1 (5% NMP+95% PEG400)+Vehicle 2 (saline); 2) Compound 1 (50 mg/kg, QD, PO)+Vehicle 2; 3) Vehicle 1+Dex 1 (5 mg/kg, Q3D, IP); 4) Compound 1+Dex 1; 5) Vehicle 1+Dex 2 (1 mg/kg, Q3D, IP); 6) Compound 1+Dex 2. PEG400 refers to polyethylene glycol-400. NMP refers to N-methyl-2-pyrrolidone. Dex refers to dexamethasone. Q3D refers to administration every third day. PO refers to oral administration. IP refers to intraperitoneal administration. Plasma samples were collected on day 14 at the trough, 1, 2, 4, and 6 h post dose for pharmacokinetic analysis.

DoHH2 tumor = format: in vivo
Description: In particular, tolerability of the combination treatment was assessed in DoHH2 tumor bearing CB17.SCID female mice (a follicular lymphoma subcutaneous model). […] Plasma samples were collected on day 7 (trough, 1, 2, 4, and 6 h post dose) and on day 14 (2 h post final dose).

SU-DHL-4-epst = experiment: Combination study, ATPLite 72 h, dose matrix (Synergy Score, CI50)
Description: (§1) Cells are thawed from a liquid nitrogen preserved state. Once cells have been expanded and divide at their expected doubling times, screening begins. Cells are seeded in growth media in either black 1536-well or 384-well tissue culture treated plates. Cells are then equilibrated in assay plates via centrifugation and placed in incubators attached to the Dosing Modules at 37° C. for 24 hours before treatment. […] These Tzero (To) plates are read using ultra-sensitive luminescence on Envision plate readers (Perkin Elmer). Treated assay plates are incubated with compound for 72 hours. After 72 hours, plates are developed for endpoint analysis using ATPLite. All data points are collected via automated processes, quality controlled and analyzed using Zalicus software.
(§2) The measure of effect in the experiment can be the inhibition of cellular response relative to the untreated level (vehicle alone). […] The inhibition ranges from 0% at the untreated level to 100% when T=0. Inhibition levels are negative for agents that actually increase levels.
(§3) Growth Inhibition (GI) is used as a measure of cell viability. […] A GI reading of 100% represents complete growth inhibition—T72 compound-treated and T0 vehicle signals are matched. […] A GI reading of 200% represents complete death of all cells in the culture well. Compounds reaching an activity plateau of GI 200% are considered cytotoxic. GI is calculated by applying the following test and equation:
(§4) Combination analysis data were collected in a 6×6 dose matrix. Synergy is calculated by comparing a combination's response to those of its single compound, against the drug-with-itself dose-additive reference model. Deviations from dose additivity may be assessed visually on an isobologram or numerically with a Combination Index (CI). […] Additive effect is CI=1.0. […] Antagonistic effect is CI>1.0.
(§5) To measure combination effects in excess of Loewe additivity, a scalar measure to characterize the strength of synergistic interaction termed the Synergy Score is devised. The Synergy Score is calculated as:
(§6) The fractional inhibition for each component agent and combination point in the matrix is calculated relative to the median of all vehicle-treated control wells. The Synergy Score equation integrates the experimentally-observed activity volume at each point in the matrix in excess of a model surface numerically derived from the activity of the component agents using the Loewe model for additivity. Additional terms in the Synergy Score equation (above) are used to normalize for various dilution factors used for individual agents and to allow for comparison of synergy scores across an entire experiment. The inclusion of positive inhibition gating or an Idata multiplier removes noise near the zero effect level, and biases results for synergistic interactions at that occur at high activity levels.
(§7) Loewe Volume (Loewe Vol) is used to assess the overall magnitude of the combination interaction in excess of the Loewe additivity model. Loewe Volume is particularly useful when distinguishing synergistic increases in a phenotypic activity (positive Loewe Volume) versus synergistic antagonisms (negative Loewe Volume). […] This model defines additivity as a non-synergistic combination interaction where the combination dose matrix surface should be indistinguishable from either drug crossed with itself. The calculation for Loewe additivity is:

SU-DHL-10-epst = experiment: as above
Description: as §1, §2, §3, §4, §5, §6, §7

Farage = experiment: as above; conditions: Farage

C[C@H](Nc1ncnc2[nH]cnc12)c1cc2cccc(Cl)c2c(=O)n1-c1ccccc1 [Compound 1, (S)-3-(1-((9H-purin-6-yl)amino)ethyl)-8-chloro-2-phenylisoquinolin-1(2H)-one]
Absolute lymphocyte count (ALC) (CLL; 25 mg bid, C5D1, ALC=257 at C1D1): 134 | clinical response (CLL; 25 mg bid, after C7 (cycle 7), STK11 copy loss detected at C5D1): progressed | clinical response (CLL; monotherapy 25 mg bid, C3D1 (cycle 3, day 1)): partial response | Compound 1 plasma exposure ([1]; 50 mg/kg Compound 1 PO in combination with dexamethasone 5 mg/kg Q3D, versus Compound 1 alone): decrease | mean plasma concentration of Compound 1 ([1]; 50 mg/kg Compound 1 plus 1 mg/kg dexamethasone (Q3D) versus 50 mg/kg Compound 1 alone): relatively similar | decrease of Compound 1 plasma exposure ([1]; co-administered with higher dose of dexamethasone, 5 mg/kg): about 30% | degree of Compound 1 exposure ([1]; single agent versus combination with dexamethasone 1 mg/kg): similar | tumor volume (DoHH2 tumor; Compound 1 50 mg/kg QD PO plus dexamethasone 5 mg/kg Q3D IP, after 12 days, versus vehicle, Compound 1 alone or dexamethasone alone, FIG. 8): lower | tumor growth inhibition (DoHH2 tumor; Compound 1 50 mg/kg QD in combination with dexamethasone 5 mg/kg Q3D IP, compared to either monotherapy): greater tumor growth inhibition | tolerability of the combination (body weight) (DoHH2 tumor; co-administration of dexamethasone and Compound 1 in mice): tolerable | CI50 growth inhibition (SU-DHL-4-epst; combination with Dexamethasone): S (S=0.01 to <0.5) | CI50 inhibition (SU-DHL-4-epst; combination with Dexamethasone): S (S=0.01 to <0.5) | Synergy Score growth inhibition (SU-DHL-4-epst; combination with Dexamethasone): A3 (A3=>3) | Synergy Score inhibition (SU-DHL-4-epst; combination with Dexamethasone): A3 (A3=>3) | CI50 growth inhibition (SU-DHL-4-epst; combination with LEE011): S (S=0.01 to <0.5) | CI50 inhibition (SU-DHL-4-epst; combination with LEE011): S (S=0.01 to <0.5) | Synergy Score growth inhibition (SU-DHL-4-epst; combination with LEE011): A2 (A2=1 to <3) | Synergy Score inhibition (SU-DHL-4-epst; combination with LEE011): A2 (A2=1 to <3) | CI50 growth inhibition (SU-DHL-4-epst; combination with PCI-32765): S (S=0.01 to <0.5) | CI50 inhibition (SU-DHL-4-epst; combination with PCI-32765): S (S=0.01 to <0.5) | Synergy Score growth inhibition (SU-DHL-4-epst; combination with PCI-32765): A3 (A3=>3) | Synergy Score inhibition (SU-DHL-4-epst; combination with PCI-32765): A3 (A3=>3) | CI50 growth inhibition (SU-DHL-4-epst; combination with PD-0332991): S (S=0.01 to <0.5) | CI50 inhibition (SU-DHL-4-epst; combination with PD-0332991): S (S=0.01 to <0.5) | Synergy Score growth inhibition (SU-DHL-4-epst; combination with PD-0332991): A3 (A3=>3) | Synergy Score inhibition (SU-DHL-4-epst; combination with PD-0332991): A2 (A2=1 to <3) | CI50 growth inhibition (SU-DHL-10-epst; combination with Dexamethasone): S (S=0.01 to <0.5) | CI50 inhibition (SU-DHL-10-epst; combination with Dexamethasone): S (S=0.01 to <0.5) | Synergy Score growth inhibition (SU-DHL-10-epst; combination with Dexamethasone): A3 (A3=>3) | Synergy Score inhibition (SU-DHL-10-epst; combination with Dexamethasone): A3 (A3=>3) | CI50 growth inhibition (SU-DHL-10-epst; combination with LEE011): S (S=0.01 to <0.5) | CI50 inhibition (SU-DHL-10-epst; combination with LEE011): S (S=0.01 to <0.5) | Synergy Score growth inhibition (SU-DHL-10-epst; combination with LEE011): A3 (A3=>3) | Synergy Score inhibition (SU-DHL-10-epst; combination with LEE011): A3 (A3=>3) | CI50 growth inhibition (SU-DHL-10-epst; combination with PCI-32765): S (S=0.01 to <0.5) | CI50 inhibition (SU-DHL-10-epst; combination with PCI-32765): S (S=0.01 to <0.5) | Synergy Score growth inhibition (SU-DHL-10-epst; combination with PCI-32765): A3 (A3=>3) | Synergy Score inhibition (SU-DHL-10-epst; combination with PCI-32765): A3 (A3=>3) | CI50 growth inhibition (SU-DHL-10-epst; combination with PD-0332991): S (S=0.01 to <0.5) | CI50 inhibition (SU-DHL-10-epst; combination with PD-0332991): S (S=0.01 to <0.5) | Synergy Score growth inhibition (SU-DHL-10-epst; combination with PD-0332991): A3 (A3=>3) | Synergy Score inhibition (SU-DHL-10-epst; combination with PD-0332991): A3 (A3=>3) | CI50 growth inhibition (Farage; combination with Dexamethasone): U (U=0.7 to <1) | CI50 inhibition (Farage; combination with Dexamethasone): S (S=0.01 to <0.5) | Synergy Score growth inhibition (Farage; combination with Dexamethasone): A3 (A3=>3) | Synergy Score inhibition (Farage; combination with Dexamethasone): A3 (A3=>3) | CI50 growth inhibition (Farage; combination with LEE011): W (W=≥1) | CI50 inhibition (Farage; combination with LEE011): W (W=≥1) | Synergy Score growth inhibition (Farage; combination with LEE011): A1 (A1=0.0001 to <1) | Synergy Score inhibition (Farage; combination with LEE011): A1 (A1=0.0001 to <1) | CI50 growth inhibition (Farage; combination with PCI-32765): S (S=0.01 to <0.5) | CI50 inhibition (Farage; combination with PCI-32765): S (S=0.01 to <0.5) | Synergy Score growth inhibition (Farage; combination with PCI-32765): A3 (A3=>3) | Synergy Score inhibition (Farage; combination with PCI-32765): A3 (A3=>3) | CI50 growth inhibition (Farage; combination with PD-0332991): T (T=0.5 to <0.7) | CI50 inhibition (Farage; combination with PD-0332991): S (S=0.01 to <0.5) | Synergy Score growth inhibition (Farage; combination with PD-0332991): A2 (A2=1 to <3) | Synergy Score inhibition (Farage; combination with PD-0332991): A2 (A2=1 to <3)
